Reference: US6461997B1, “Triazole sulfones having herbicidal activity” (Monsanto Technology LLC, priority 1999, dated 2002)

Assays:
[1] = test system: AGSST (creeping bentgrass); assay: Pre-emergence herbicidal activity, cool season; assay type: in vivo, Agrostis stolonifera; conditions: GR80 = lowest tested rate (300, 100, 30, 10 g/ha) with 80% or greater inhibition; approx. 14 days after treating; 18/13° C.
Outline: (§1)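 Seeds sown in sterilised fertilised topsoil received surface-applied compound in 50:50 acetone/water, typically at 300, 100, 30 and 10 g/ha, then greenhouse-grown at 30/21° C (warm-season species) or 18/13° C (cool-season species). Percent inhibition versus untreated plants was scored at about 14 days, giving GR80; an asterisk marks activity short of 80% at the top rate.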

ALOMY (blackgrass) = assay: Pre-emergence herbicidal activity, cool season; assay type: in vivo, Alopecurus myosuroides; conditions: GR80 = lowest tested rate (300, 100, 30, 10 g/ha) with 80% or greater inhibition; approx. 14 days after treating; 18/13° C.
Outline: (§2)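 Read-out: GR80, derived from percent growth inhibition relative to untreated plants at roughly 14 days after planting and treatment. Compounds went onto the surface of freshly seeded soil at 10–300 g/ha. Day/night regimes were 30/21 °C for millet and crabgrass, 18/13 °C for blackgrass and buckwheat.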

SETVI (green foxtail) = assay: Pre-emergence herbicidal activity, cool season; assay type: in vivo, Setaria viridis; conditions: GR80 = lowest tested rate (300, 100, 30, 10 g/ha) with 80% or greater inhibition; approx. 14 days after treating; 18/13° C.
Outline: as §1

SETFA (giant foxtail) = assay: Pre-emergence herbicidal activity, warm season; assay type: in vivo, Setaria faberi; conditions: GR80 = lowest tested rate (300, 100, 30, 10 g/ha) with 80% or greater inhibition; approx. 14 days after treating; 30/21° C.
Outline: as §1

[2] = test system: GALAP (catchweed bedstraw); assay: Pre-emergence herbicidal activity, cool season; assay type: in vivo, Galium aparine; conditions: lowest tested rate with 80% or greater inhibition; rates 300, 100, 30, 10 g/ha; about 14 days
Outline: as §1

PANDI (fall panicum) = assay: Pre-emergence herbicidal activity, warm season; assay type: in vivo, Panicum dichotomiflorum; conditions: GR80 = lowest tested rate (300, 100, 30, 10 g/ha) with 80% or greater inhibition; approx. 14 days after treating; 30/21° C.
Method: (§3) Tables 5 to 8 summarize results of tests conducted as described below to determine the pre-emergence herbicidal activity, in the form of a GR80 value, of illustrative compounds of this invention. […] Compounds of the invention were typically applied at rates of 300, 100, 30, and 10 g/ha. Where herbicidal activity was evident but 80% inhibition was not achieved at the highest rate tested, an asterisk (*) is shown in the following tables.
(§4) The pre-emergence tests were conducted by the following procedure. Topsoil was sieved to pass through a 1.27 cm screen. Fertilizer was added to the topsoil and the mixture was then sterilized by heating. The topsoil mixture was placed in a pot and compacted to a depth of 1.0 to 1.25 cm from the top of the pot. Seeds of each of several monocotyledonous and dicotyledonous annual plant species were placed on top of the soil. Additional soil was subsequently placed over the seeds to level-fill the pot. A known amount of each test compound dissolved or suspended in an appropriate organic solvent was diluted with a 50:50 mix of acetone and water and applied to the surface of the soil. After treatment the plants were placed in a greenhouse where they received 0.64 cm of overhead irrigation. All subsequent watering consisted of a light overhead mist and/or subirrigation as needed for germination and growth. Tables 5 and 6 below relate to warm season plant species which were placed after pre-emergence treatment in a greenhouse with a 30/21° C. day/night temperature regime. Tables 7 and 8 below relates to cool season plant species placed after pre-emergence treatment in a greenhouse or growth chamber with an 18/13° C. day/night temperature regime.
(§5) Approximately 14 days after planting and treating, the plants were observed and herbicidal efficacy recorded as percent inhibition by comparison with untreated plants.
(§6) The plant species usually regarded as weeds which were utilized in the tests are identified in the tables below according to the following legend, in which “d” indicates a dicotyledonous species and “m” a monocotyledonous species. All monocotyledonous species included in the tests herein are grasses.

[3] = test system: BRAPP (broadleaf signalgrass); assay: Pre-emergence herbicidal activity, warm season; assay type: in vivo, Brachiaria platyphylla; conditions: GR80 = lowest tested rate (300, 100, 30, 10 g/ha) with 80% or greater inhibition; approx. 14 days after treating; 30/21° C.
Outline: as §1

STEME (common chickweed) = assay: Pre-emergence herbicidal activity, cool season; assay type: in vivo, Stellaria media; conditions: lowest tested rate with 80% or greater inhibition; rates 300, 100, 30, 10 g/ha; about 14 days
Outline: as §1

[4] = test system: PANMI (wild proso millet); assay: Pre-emergence herbicidal activity, warm season; assay type: in vivo, Panicum miliaceum; conditions: GR80 = lowest tested rate (300, 100, 30, 10 g/ha) with 80% or greater inhibition; approx. 14 days after treating; 30/21° C.
Outline: as §2

POROL (common purslane) = assay: Pre-emergence herbicidal activity, warm season; assay type: in vivo, Portulaca oleracea; conditions: GR80 = lowest tested rate (300, 100, 30, 10 g/ha) with 80% or greater inhibition; approx. 14 days after treating; 30/21° C.
Outline: as §1

POLCO (wild buckwheat) = assay: Pre-emergence herbicidal activity, cool season; assay type: in vivo, Polygonum convolvulus; conditions: lowest tested rate with 80% or greater inhibition; rates 300, 100, 30, 10 g/ha; about 14 days
Outline: as §2

SASKR (russian thistle) = assay: Pre-emergence herbicidal activity, cool season; assay type: in vivo, Salsola kali; conditions: lowest tested rate with 80% or greater inhibition; rates 300, 100, 30, 10 g/ha; about 14 days
Outline: as §1

[5] = test system: LAMPU (purple deadnettle); assay: Pre-emergence herbicidal activity, cool season; assay type: in vivo, Lamium purpureum; conditions: lowest tested rate with 80% or greater inhibition; rates 300, 100, 30, 10 g/ha; about 14 days
Outline: as §1

SINAR (wild mustard) = assay: Pre-emergence herbicidal activity, cool season; assay type: in vivo, Sinapis arvensis; conditions: lowest tested rate with 80% or greater inhibition; rates 300, 100, 30, 10 g/ha; about 14 days
Outline: as §1

[6] = test system: CIRAR (canada thistle (seedling)); assay: Pre-emergence herbicidal activity, warm season; assay type: in vivo, Cirsium arvense; conditions: GR80 = lowest tested rate (300, 100, 30, 10 g/ha) with 80% or greater inhibition; approx. 14 days after treating; 30/21° C.
Method: as §3, §4, §5, §6

[7] = test system: VERPE (creeping speedwell); assay: Pre-emergence herbicidal activity, cool season; assay type: in vivo, Veronica persicaria; conditions: lowest tested rate with 80% or greater inhibition; rates 300, 100, 30, 10 g/ha; about 14 days
Outline: as §1

[8] = test system: SORHA (johnsongrass (seedling)); assay: Pre-emergence herbicidal activity, warm season; assay type: in vivo, Sorghum halepense; conditions: GR80 = lowest tested rate (300, 100, 30, 10 g/ha) with 80% or greater inhibition; approx. 14 days after treating; 30/21° C.
Outline: as §1

BROTE (downy brome) = assay: Pre-emergence herbicidal activity, cool season; assay type: in vivo, Bromus tectorum; conditions: GR80 = lowest tested rate (300, 100, 30, 10 g/ha) with 80% or greater inhibition; approx. 14 days after treating; 18/13° C.
Method: as §3, §4, §5, §6

LOLMG (annual ryegrass) = assay: Pre-emergence herbicidal activity, cool season; assay type: in vivo, Lolium multiflorum; conditions: GR80 = lowest tested rate (300, 100, 30, 10 g/ha) with 80% or greater inhibition; approx. 14 days after treating; 18/13° C.
Method: as §3, §4, §5, §6

| Compound | Pre-emergence activity (GR80) AGSST [1] [g/ha] | Pre-emergence activity (GR80) ALOMY (ALOMY (blackgrass)) [g/ha] | Pre-emergence activity (GR80) SETVI (SETVI (green foxtail)) [g/ha] | Pre-emergence activity (GR80) SETFA (SETFA (giant foxtail)) [g/ha] | Pre-emergence activity GR80, GALAP [2] | Pre-emergence activity (GR80) PANDI (PANDI (fall panicum)) [g/ha] | Pre-emergence activity (GR80) BRAPP [3] [g/ha] | Pre-emergence activity GR80, STEME (STEME (common chickweed)) [g/ha] | Pre-emergence activity (GR80) PANMI [4] [g/ha] | Pre-emergence activity (GR80) POROL (POROL (common purslane)) [g/ha] | Pre-emergence activity GR80, POLCO (POLCO (wild buckwheat)) | Pre-emergence activity GR80, SASKR (SASKR (russian thistle)) | Pre-emergence activity GR80, LAMPU [5] | Pre-emergence activity GR80, SINAR (SINAR (wild mustard)) | Pre-emergence activity (GR80) CIRAR [6] [g/ha] | Pre-emergence activity GR80, VERPE [7] [g/ha] | Pre-emergence activity (GR80) SORHA [8] [g/ha] | Pre-emergence activity (GR80) BROTE (BROTE (downy brome)) [g/ha] | Pre-emergence activity (GR80) LOLMG (LOLMG (annual ryegrass)) [g/ha] |
| --- | --- | --- | --- | --- | --- | --- | --- | --- | --- | --- | --- | --- | --- | --- | --- | --- | --- | --- | --- |
| CN(C(=O)n1cnc(S(=O)(=O)C(F)(F)Br)n1)C1CCCCC1 [Example 43] | 100 | 300 | 300 | 100 | 300 g/ha | 100 | 300 | 300 | 100 | 300 | [empty] | [empty] | 300 g/ha | [empty] | 300 | 300 | – | – | – |
| CCN(CC)C(=S)n1cnc(S(=O)(=O)C(F)(F)Br)n1 [Example 46] | 300 | – | 300 | 300 | 300 g/ha | 300 | – | 300 | 300 | – | 300 g/ha | 300 g/ha | 100 g/ha | [empty] | – | 100 | 300 | – | – |
| CON(C)C(=O)n1cnc(S(=O)(=O)C(F)(F)C(F)F)n1 [Example 69] | – | 300 | 100 | – | 100 g/ha | – | – | 300 | – | – | 100 g/ha | [empty] | [empty] | 30 g/ha | – | 100 | – | 300 | 300 |
| CON(C)C(=O)n1cnc(S(=O)(=O)C(F)(F)C(F)(F)Br)n1 [Example 81] | 100 | – | – | – | [empty] | – | – | 30 | – | – | [empty] | 100 g/ha | 100 g/ha | 30 g/ha | – | 100 | – | 30 | – |
| CN(C)C(=O)n1cnc(S(=O)(=O)C(F)(F)Cl)n1 [Example 85] | 100 | – | 300 | – | [empty] | – | – | 30 | – | – | [empty] | 100 g/ha | 100 g/ha | 30 g/ha | – | 100 | – | 100 | 100 |
